Each compound was assayed on bacteria (16S) and fungi (ITS) communities (assay: Potato field trial: soil microbiome community and biodiversity). Conditions: not given.
Format: in vivo, potato (Solanum tuberculosum L.)
Procedure: In this experiment, assuming that biodiversity can be measured by the taxonomic richness and abundance of each taxon, the differences between treatments are determined and their effect on populations and beneficial species over time is verified. This leads to testing two hypotheses. Firstly, there is an impact of cyclobutrifluram applications on microbial diversity. Secondly, the use of cyclobutrifluram improves beneficial microbial diversity over time. These hypotheses were tested in two potato farms in the USA.
The experiment was carried out in two potato (Solanum tuberculosum L.) fields located in two test locations in Louisiana, USA, described as locations A and B in Table 2. In each experimental field, three products were tested in an area of 10 m^2 (Table 3) and three replicates per product were established by complete block randomized. To evaluate the effects on the microbiome a “Check” plot (untreated) was established. In addition, fluopyram was employed as a comparative example. Fluopyram is a widely used fungicide and nematicide, and represents the industry standard herein.
To analyse the microbial biodiversity, three soil samples were taken per treatment and each sample consisted of soil collected from three different points within the plots. In this way, the effect of soil variability was minimized, since there were nine samples per treatment. […]
As set out above, to detect microbial community modifications in the soil microbiome associated with the cyclobutrifluram treatment, PCR amplification and successive high-throughput sequencing of bacterial and fungal taxonomical marker genes (the small-subunit ribosomal RNA gene (16S) and the ribosomal internal transcribed spacers (ITS) respectively) were performed on plant-associated soil samples. An exploratory data analysis was conducted to describe the microbial biodiversity and the behaviour of the percentage of the abundance of species under the evaluated factors. […]

Q: For `O=C(NCCc1ncc(C(F)(F)F)cc1Cl)c1ccccc1C(F)(F)F` [fluopyram], which “beneficial effect on soil microbiome” value is on record?
A: did not show any beneficial effect

Same assay, conditions: 250 gai/ha

Q: For `O=C(NCCc1ncc(C(F)(F)F)cc1Cl)c1ccccc1C(F)(F)F` [fluopyram], which “impact on plant-pathogenic microbes” value is on record?
A: showed an impact in promoting in particular plant-pathogenic microbes

What follows are compounds tested on arbuscular mycorrhizae fungi (assay: Mycorrhization in soybean roots after seed treatment). Conditions: Glycine max; soybean variety Toliman, seed treatment 0.15 mg ai/seed, mycorrhizal inoculant Blend A; relative to control; read-out: [%] arbuscular mycorrhizae fungi colonization vs. control.
Format: in vivo
Procedure: Soybeans of variety Toliman were treated with 0.15 mg ai/seed of cyclobutrifluram and analogues, and planted in 1.5 L pots of 0-3 mm sieved soil. The seeds were inoculated with Bradyrhizobium japonicum using a commercially available product for soybeans.
In a first series, for each active ingredient tested, 15 replicate pots were sowed. In each pot, 3 seeds were sowed. After germination, 2 seedling was removed from each pot to a final number of 1 plant per pot. Each pot was inoculated with a small amount of a mycorrhizal inoculant (Blend A, commercially available from Symbiom, Czech Republic). The plants were grown in a greenhouse for 81 days under the following conditions: Humidity at 45-64%, Temperature of 22° C. to 24° C., in a 16/8 hour day/night cycle. In a further test series, Soybeans seeds treated as outlined above were then planted in 1 Lpots of 0-3 mm sieved soil. For each active ingredient, 8 replicate pots were sowed, whereby in each pot, 3 seeds were sowed. After germination, 2 seedlings were removed from each pot to a final number of 1 plant per pot.
The plants were then grown in a growth chamber for 42 days with the following conditions: Temperature of 20° C. and with a 12/12 hour day/night.
After harvest, the percent mycorrhization was quantified using the methods of McGonigle et al. (T. P. McGONIGLE, M. H. MILLER and D. G. EVANS et al., “A new method which gives an objective measure of colonization of roots by vesicular-arbuscular mycorrhizal fungi”. New Phytol. Vol. 115 (3): 495-501.).

Q: For `O=C(N[C@H]1CC[C@H]1c1ccc(F)cc1Cl)c1ncccc1C(F)(F)F` [Compound A3], which response vs control in vivo at 0.15 mg/seed is on record?
A: 84%

Q: `O=C(N[C@H]1CC[C@H]1c1ccc(F)cc1F)c1nccnc1C(F)(F)F` [Compound A1] was tested. Which response vs control in vivo at 0.15 mg/seed did it give?
A: 61%

Q: `O=C(N[C@@H]1CO[C@@H]1c1ccc(F)cc1F)c1nccnc1C(F)(F)F` (racemic) [Compound A5] was tested. Which response vs control in vivo at 0.15 mg/seed did it give?
A: 81%

Q: For `O=C(N[C@H]1CC[C@H]1c1ccc(F)cc1Cl)c1cccnc1C(F)(F)F` [Compound A2], which response vs control in vivo at 0.15 mg/seed is on record?
A: 72%

Q: How did the response vs control in vivo at 0.15 mg/seed turn out when `O=C(N[C@@H]1CO[C@@H]1c1ccc(Cl)cc1Cl)c1cccnc1C(F)(F)F` (racemic) [Compound A7] was run?
A: 76%

Q: For `O=C(N[C@@H]1CO[C@@H]1c1ccc(Cl)cc1Cl)c1nccnc1C(F)(F)F` (racemic) [Compound A6], which response vs control in vivo at 0.15 mg/seed is on record?
A: 97%

Q: For `O=C(N[C@H]1CC[C@H]1c1ccc(F)cc1F)c1ncccc1C(F)(F)F` [Compound A4], which response vs control in vivo at 0.15 mg/seed is on record?
A: 67%
